Measurements as given in patent US10745382B2 (BRISTOL-MYERS SQUIBB COMPANY, priority 2015, dated 2020).

Biological target: T1, PD-1/PD-L1 (Homo sapiens, UniProt Q9NZQ7)
T1 construct: made in house; host or cells: HEK293T
Assay: PD-1/PD-L1 Homogenous Time-Resolved Fluorescence (HTRF) binding assay
Settings: PD-L1-His 10 nM, PD-1-Ig 20 nM; numeric IC50; read-out: Range or IC50
Summary of the method: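 Read-out is time-resolved FRET between europium cryptate-labelled anti-Ig (1 nM final) and APC-labelled anti-His (20 nM final), both dispensed onto the binding mix. Assay buffer: dPBS containing 0.1% bovine serum albumin and 0.05% Tween-20.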

T1 sequence (Q9NZQ7 with tags, fused parts or gaps): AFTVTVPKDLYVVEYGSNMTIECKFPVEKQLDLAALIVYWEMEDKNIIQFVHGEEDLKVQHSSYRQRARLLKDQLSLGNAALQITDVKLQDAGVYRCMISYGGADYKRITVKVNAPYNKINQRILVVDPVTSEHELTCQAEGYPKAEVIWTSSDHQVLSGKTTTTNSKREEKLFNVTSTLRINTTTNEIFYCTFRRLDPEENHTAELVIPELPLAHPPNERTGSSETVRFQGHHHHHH

Cc1c(OCCCN2CC[C@@H](O)C2)cccc1-c1cccc(COc2cc(OCc3cncc(C#N)c3)c(CNC(CO)CO)cc2Cl)c1Cl [Example 2300, (R)-5-((4-chloro-5-((2-chloro-3′-(3-(3-hydroxypyrrolidin-1-yl)propoxy)-2′-methyl-[1,1′-biphenyl]-3-yl)methoxy)-2-(((1,3-dihydroxypropan-2-yl)amino)methyl)phenoxy)methyl)nicotinonitrile] showed an IC50 of 1.7 nM.

Same assay, conditions: PD-L1-His 10 nM, PD-1-Ig 20 nM; value given as range class; read-out: Range or IC50

Cc1c(COc2cc(OCc3cncc(C#N)c3)c(CNC(C)(CO)CO)cc2Cl)cccc1-c1cccc(OCCCNC[C@H](O)CO)c1C [Example 2297, (S)-5-((4-chloro-2-(((1,3-dihydroxy-2-methylpropan-2-yl)amino)methyl)-5-((3′-(3-((2,3-dihydroxypropyl)amino)propoxy)-2,2′-dimethyl-[1,1′-biphenyl]-3-yl)methoxy)phenoxy)methyl)nicotinonitrile] and CNC(=O)c1cccc(-c2cccc(COc3cc(OCc4cncc(C#N)c4)c(CNC(C)(CO)CO)cc3Cl)c2C)c1C [Example 4016, 3′-((2-chloro-5-((5-cyanopyridin-3-yl)methoxy)-4-(((1,3-dihydroxy-2-methylpropan-2-yl)amino)methyl)phenoxy)methyl)-N,2,2′-trimethyl-[1,1′-biphenyl]-3-carboxamide] fall in the same range of IC50: 0.21 to 10 nM for the first, 0.21 to 10 nM for the second.

First: CCNC(=O)c1cccc(-c2cccc(COc3cc(OCc4cc(F)cc(F)c4)c(CN4CCOC[C@H]4C(=O)O)cc3Cl)c2C)c1C [Example 4020, (S)-4-(5-chloro-2-((3,5-difluorobenzyl)oxy)-4-((3′-(ethylcarbamoyl)-2,2′-dimethyl-[1,1′-biphenyl]-3-yl)methoxy)benzyl)morpholine-3-carboxylic Acid]
Second: CCNC(=O)c1cccc(-c2cccc(COc3cc(OCc4cc(F)cc(F)c4)c(CN4CCC[C@H]4C(=O)O)cc3Cl)c2C)c1C [Example 4018, (5-chloro-2-((3,5-difluorobenzyl)oxy)-4-((3′-(ethylcarbamoyl)-2,2′-dimethyl-[1,1′-biphenyl]-3-yl)methoxy)benzyl)-L-proline]
The IC50 of the first is higher: 2010 to 10000 nM for the first, 100 to 2000 nM for the second. The second is the more potent here.

C=CC[C@H](NCc1cc(Cl)c(OCc2cccc(-c3cccc(OCCCN4CC[C@@H](O)C4)c3C)c2C)cc1OCc1cncc(C#N)c1)C(=O)O [Example 4155, (S)-2-((5-chloro-2-((5-cyanopyridin-3-yl)methoxy)-4-((3′-(3-((R)-3-hydroxypyrrolidin-1-yl)propoxy)-2,2′-dimethyl-[1,1′-biphenyl]-3-yl)methoxy)benzyl)amino)pent-4-enoic Acid] and Cc1ccc(OCCCN2CC[C@@H](O)C2)c(C)c1-c1cccc(COc2cc(OCc3cncc(C#N)c3)c(CN[C@@H](CO)C(=O)O)cc2Cl)c1C [Example 3031, (2S)-2-((5-chloro-2-((5-cyanopyridin-3-yl)methoxy)-4-((3′-(3-((R)-3-hydroxypyrrolidin-1-yl)propoxy)-2,2′,6′-trimethyl-[1,1′-biphenyl]-3-yl)methoxy)benzyl)amino)-3-hydroxypropanoic Acid] fall in the same range of IC50: 0.21 to 10 nM for the first, 0.21 to 10 nM for the second.

Cc1c(COc2cc(OCc3cncc(C(N)=O)c3)c(CN[C@H](CO)C(=O)O)cc2Cl)cccc1-c1cccc(OCCCN2CCC(O)(C(=O)O)CC2)c1 [Example 1032, (R)-1-(3-((3′-((5-((5-carbamoylpyridin-3-yl)methoxy)-4-(((1-carboxy-2-hydroxyethyl)amino)methyl)-2-chlorophenoxy)methyl)-2′-methyl-[1,1′-biphenyl]-3-yl)oxy)propyl)-4-hydroxypiperidine-4-carboxylic Acid] and Cc1c(COc2cc(OCc3cncc(C(N)=O)c3)c(CN3CCCC[C@H]3C(=O)O)cc2Cl)cccc1-c1cccc(OCCCN2CCC(CO)(C(=O)O)C2)c1Cl (stereo partly drawn) [Example 1107, (2S)-1-(2-((5-carbamoylpyridin-3-yl)methoxy)-4-((3′-(3-(3-carboxy-3-(hydroxymethyl)pyrrolidin-1-yl)propoxy)-2′-chloro-2-methyl-[1,1′-biphenyl]-3-yl)methoxy)-5-chlorobenzyl)piperidine-2-carboxylic Acid] fall in the same range of IC50: 0.21 to 10 nM for the first, 0.21 to 10 nM for the second.

Cc1c(COc2cc(OCc3cncc(S(C)(=O)=O)c3)c(CN3CCCC[C@H]3C(=O)O)cc2Cl)cccc1-c1cccc(OCCCN2CCC(O)(CC(=O)O)C2)c1C (mixture of isomers) [Example 1516, (2S)-1-(4-((3′-(3-(3-(carboxymethyl)-3-hydroxypyrrolidin-1-yl)propoxy)-2,2′-dimethyl-[1,1′-biphenyl]-3-yl)methoxy)-5-chloro-2-((5-(methylsulfonyl)pyridin-3-yl)methoxy)benzyl)piperidine-2-carboxylic acid] and Cc1c(COc2cc(OCc3cncc(C#N)c3)c(CN3CCCC[C@H]3C(=O)O)cc2Cl)cccc1-c1cccc(OCCCN2CCOCC2)c1C [Example 2212, (2S)-1-(5-chloro-2-((5-cyanopyridin-3-yl)methoxy)-4-((2,2′-dimethyl-3′-(3-morpholinopropoxy)biphenyl-3-yl)methoxy)benzyl)piperidine-2-carboxylic Acid] fall in the same range of IC50: 0.21 to 10 nM for the first, 0.21 to 10 nM for the second.

Compared with Cc1c(COc2cc(OCc3cncc(C#N)c3)c(CN3CCCC[C@H]3C(=O)O)cc2Cl)cccc1-c1cccc(OCCCN(C)Cc2ccccn2)c1C [Example 2228, (2S)-1-(5-chloro-2-((5-cyanopyridin-3-yl)methoxy)-4-((2,2′-dimethyl-3′-(3-(methyl(pyridin-2-ylmethyl)amino)propoxy)biphenyl-3-yl)methoxy)benzyl)piperidine-2-carboxylic Acid], Cc1c(COc2cc(OCc3cncc(C#N)c3)c(CN3CCCC[C@H]3C(=O)O)cc2Cl)cccc1-c1cccc(OCCCN[C@H](CO)C(C)C)c1C [Example 2238, (2S)-1-(5-chloro-2-((5-cyanopyridin-3-yl)methoxy)-4-((3′-(3-((S)-1-hydroxy-3-methylbutan-2-ylamino)propoxy)-2,2′-dimethylbiphenyl-3-yl)methoxy)benzyl)piperidine-2-carboxylic Acid] is lower in IC50: 10 to 100 nM for the first, 0.21 to 10 nM for the second.

Cc1c(COc2cc(OCc3cncc(C#N)c3)c(CN[C@H](C(=O)O)c3ccccc3)cc2Cl)cccc1-c1cccc(OCCCN2CC[C@@H](O)C2)c1C [Example 4156, (S)-2-((5-chloro-2-((5-cyanopyridin-3-yl)methoxy)-4-((3′-(3-((R)-3-hydroxypyrrolidin-1-yl)propoxy)-2,2′-dimethyl-[1,1′-biphenyl]-3-yl)methoxy)benzyl)amino)-2-phenylacetic Acid] and Cc1c(COc2cc(OCc3cncc(C#N)c3)c(CN[C@@H](CO)C(=O)O)cc2Cl)cccc1-c1cccc(OCCCN2CCC(O)(c3ccccc3)C2)c1C (stereo partly drawn) [Example 3039, (2S)-2-((5-chloro-2-((5-cyanopyridin-3-yl)methoxy)-4-((3′-(3-(3-hydroxy-3-phenylpyrrolidin-1-yl)propoxy)-2,2′-dimethyl-[1,1′-biphenyl]-3-yl)methoxy)benzyl)amino)-3-hydroxypropanoic Acid] fall in the same range of IC50: 0.21 to 10 nM for the first, 0.21 to 10 nM for the second.

Cc1c(OCCCN2CC[C@@H](O)C2)cccc1-c1cccc(COc2cc(OCC(F)F)c(CNC(CO)CO)cc2Cl)c1Cl [Example 2318, (R)-2-((5-chloro-4-((2-chloro-3′-(3-(3-hydroxypyrrolidin-1-yl)propoxy)-2′-methyl-[1,1′-biphenyl]-3-yl)methoxy)-2-(2,2-difluoroethoxy)benzyl)amino)propane-1,3-diol] and Cc1c(COc2cc(OCc3cncc(C#N)c3)c(CNC(CO)CO)cc2Cl)cccc1-c1cccc(OCCCN2CCC[C@H](CO)C2)c1C [Example 2296, (S)-5-((4-chloro-2-(((1,3-dihydroxypropan-2-yl)amino)methyl)-5-((3′-(3-(3-(hydroxymethyl)piperidin-1-yl)propoxy)-2,2′-dimethyl-[1,12′-biphenyl]-3-yl)methoxy)phenoxy)methyl)nicotinonitrile] fall in the same range of IC50: 0.21 to 10 nM for the first, 0.21 to 10 nM for the second.

Cc1c(COc2cc(OCc3cncc(C#N)c3)c(CN[C@](C)(CO)C(=O)O)cc2Cl)cccc1-c1cccc(OCCCN2CC[C@@H](O)C2)c1Cl [Example 1121, (R)-2-((5-Chloro-4-((2′-chloro-3′-(3-((R)-3-hydroxypyrrolidin-1-yl)propoxy)-2-methyl-[1,1′-biphenyl]-3-yl)methoxy)-2-((5-cyanopyridin-3-yl)methoxy)benzyl)amino)-3-hydroxy-2-methylpropanoic Acid] and Cc1c(COc2cc(OCc3cncc(C#N)c3)c(CNC[C@H](O)CO)cc2Cl)cccc1-c1cccc(OCCCN2CC[C@H](CO)[C@H](O)C2)c1Cl [Example 2031, 5-((4-chloro-5-((2′-chloro-3′-(3-((3 S,4R)-3-hydroxy-4-(hydroxymethyl)piperidin-1-yl)propoxy)-2-methyl-[1,1′-biphenyl]-3-yl)methoxy)-2-((((S)-2,3-dihydroxypropyl)amino)methyl)phenoxy)methyl)nicotinonitrile] fall in the same range of IC50: 0.21 to 10 nM for the first, 0.21 to 10 nM for the second.

Compared with Cc1c(COc2cc(OCc3cncc(C#N)c3)c(CO)cc2Cl)cccc1-c1cccc(OCCCNC(CO)CO)c1Cl [Example 2039, 5-((4-chloro-5-((2′-chloro-3′-(3-((1,3-dihydroxypropan-2-yl)amino)propoxy)-2-methyl-[1,1′-biphenyl]-3-yl)methoxy)-2-(hydroxymethyl)phenoxy)methyl)nicotinonitrile], Cc1c(COc2cc(OCc3cncc(C#N)c3)c(CO)cc2Cl)cccc1-c1cccc(OCCCN2CC[C@@H](O)C2)c1C(F)F [Example 1515, (R)-5-((4-chloro-5-((2′-(difluoromethyl)-3′-(3-(3-hydroxypyrrolidin-1-yl)propoxy)-2-methyl-[1,1′-biphenyl]-3-yl)methoxy)-2-(hydroxymethyl)phenoxy)methyl)nicotinonitrile] is higher in IC50: 0.21 to 10 nM for the first, 10 to 100 nM for the second.
